What all share (type): physicochemical
Series [1] is described as follows: Storage stability of flupirtine salts (HPLC). Particulars: for Decrease of the area under the peak of the flupirtine signal: 0 to 14 days of storage at room temperature under normal air; for Flupirtine signal after 14 days (area under the peak in %): HPLC after 14 days of storage at room temperature under normal air, about 21% oxygen; for Flupirtine signal after 0 days (area under the peak in %): HPLC after preparation of the salts. Here is the method:
[table] HPLC was performed after preparation of the salts and repeated after 14 days of storage at room temperature under normal air containing about 21% oxygen.

Series [2] is described as follows: Dissolution profiles of flupirtine acid addition salts in ethanol (compacted substance). To be noted: 100 mg compacted, 1000 ml ethanol, 37° C., basket 50 UpM. The protocol:
The dissolution in Ethanol was measured using compacted substance.
100 mg substance was compacted using a hydraulic press. Diameter of cake: 8.9 mm; pressure 20 kp/cm^2 for 15 sec. Liberation parameter:
Basket, 50 UpM, 1000 ml medium 37° C. Apparatus: DT6R Dissolution Tester (ERWEKA).
At given time points 5.0 ml solution were taken and measured vs. reference at 244 nm at a spectral photometer. The solution was refilled with 5 ml solvent. The amount of liberated substance at given time points was calculated using a response factor (absorption/mg substance). Measuring error: 10%.

A short description of series [3]: Crystal shape of flupirtine salts (light microscope photomicrographs). An excerpt: As referred to herein, the “aspect ratio” denotes the ratio of the second largest dimension of a crystal particle (i.e. its width) to the largest dimension of the crystal particle (i.e. its length). The aspect ratio may be determined from a representative number of crystals by visual observation under a light microscope. The photomicrographs were obtained by gently exerting pressure on the sample material with a mortar and pistil, transferring the sample material to a microscope slide and covering it with immersion oil, followed by observation and image recording on an Optech Biostar microscope equipped with a polarisation filter. The magnification was 200, i.e. at a width of the photomicrograph of 14 cm, 1 cm of said photograph corresponds to about 0.06 mm.

The nature of series [4]: Stability towards oxidation and discoloration when exposed to air. To be noted: storage period of 30 days at room temperature, in contrast to maleate and gluconate. The source says:
Discoloration can take takes place after prolonged storage or when exposed to air. Discoloration is regarded as leading to an active pharmaceutical ingredient (API) of low pharmaceutical quality and can be avoided by using a protective atmosphere in the production process and using expensive packaging materials for the finished drug forms. The discoloration effect is known for flupirtine hydrochloride, flupiritine gluconate and both polymorphs of flupirtine maleate.

Series [5] is described as follows: Determining the bulk density of flupirtine salts. Particulars: volume per 100.0 g of sample material, about 4 g in 10 ml measuring cylinder, not compacted. The protocol: The bulk density was determined as follows: Without increasing its density, sample material (about 4 grams) was introduced into a 10 ml measuring cylinder (±0.2 ml). The volume and the exact weight of the introduced sample material were determined. The bulk density was calculated as volume per 100.0 g of sample material.

Series [6] in a line: Dissolution profiles of flupirtine acid addition salts in ethanol (compacted substance). Particulars: after 10 min stirring in ethanol.

This note sets out measurements from patent US20090306150A1, “CARBOXYLIC ACID SALTS OF 2-AMINO-3-CARBETHOXYAMINO-6-(4-FLUORO-BENZYLAMINO)-PYRIDINE” (AWD. PHARMA GMBH & CO. KG, priority 2008, published 2009).

In the case of `CC(=O)O.CCOC(=O)Nc1ccc(NCc2ccc(F)cc2)nc1N` [Flupirtine acetate, 2-amino-3-carbethoxyamino-6-(4-fluoro-benzylamino)-pyridine acetate], the “Decrease of the area under the peak of the flupirtine signal” value (from here on “Decrease of the area”) in series [1] was determined as 0.9%. Moreover, the “Flupirtine signal after 14 days (area under the peak in %)” value in series [1] is recorded as 98.64%. For the same molecule, in series [1], the “Flupirtine signal after 0 days (area under the peak in %)” value worked out at 99.54%. In addition, the “Amount of substance dissolved” value in series [2] (5 min) came to 50.3 mg; in series [2] (10 min), 108.3 mg; in series [2] (15 min) it was 103.0 mg; in series [2] (20 min), 95.8 mg; in series [2] (25 min) it was 96.2 mg; in series [2] (30 min), 108.3 mg. Further, the “Amount of substance dissolved” value in series [2] (60.25 min) was determined as 99.7 mg. The Crystal shape result in series [3] is “Hexagons and polygonal plates”. Further, the “Stability towards oxidation and towards discoloration” value in series [4] was “substantially improved stability”. Moreover, the “Bulk density (ml/100 g substance)” value in series [5] was determined as 330 ml/100 g substance.
As for `CCOC(=O)Nc1ccc(NCc2ccc(F)cc2)nc1N.O=C(O)/C=C\C(=O)O` [Flupirtine maleate A, Flupirtine Maleate Form A, reference compound], in series [1], the “Decrease of the area” value worked out at 3.11%. Also, the “Flupirtine signal after 14 days (area under the peak in %)” value in series [1] was determined as 96.18%. Further, the “Flupirtine signal after 0 days (area under the peak in %)” value in series [1] turned out to be 99.27%. The “Amount of substance dissolved” value in series [2] (5 min) worked out at 2.1 mg; in series [2] (10 min), 4.1 mg; in series [2] (15 min) it was 6.5 mg; in series [2] (20 min) it was 9.5 mg; in series [2] (25 min) it was 11.7 mg; in series [2] (30 min), 14.3 mg. In addition, the “Amount of substance dissolved” value in series [2] (60.25 min) is on record as 24.2 mg. Besides, the Crystal shape entry in series [3] is “Fine needles”. Moreover, in series [5], the “Bulk density (ml/100 g substance)” value worked out at 686 ml/100 g substance.
With `CCOC(=O)Nc1ccc(NCc2ccc(F)cc2)nc1N.O=C(O)/C=C\C(=O)O` [Flupirtine maleate B, Flupirtine Maleate Form B, reference compound], the “Decrease of the area” value in series [1] is reported as 3.22%. Further, the “Flupirtine signal after 14 days (area under the peak in %)” value in series [1] is recorded as 95.92%. In addition, in series [1], the “Flupirtine signal after 0 days (area under the peak in %)” value worked out at 99.12%. Also, the “Amount of substance dissolved” value in series [2] (5 min) is recorded as 4.2 mg; in series [2] (10 min), 6.3 mg; in series [2] (15 min), 12.1 mg; in series [2] (20 min), 16.5 mg; in series [2] (25 min), 21.3 mg; in series [2] (30 min), 27.4 mg. Moreover, the “Amount of substance dissolved” value in series [2] (60.25 min) amounted to 69.5 mg. In addition, the Crystal shape result in series [3] is on record as “Very fine needles”. The “Bulk density (ml/100 g substance)” value in series [5] is recorded as 1634 ml/100 g substance.
On to `CCOC(=O)Nc1ccc(NCc2ccc(F)cc2)nc1N` [Flupirtine propionate, 2-amino-3-carbethoxyamino-6-(4-fluoro-benzylamino)-pyridine propionate], for which the “Amount of substance dissolved” value was 110.0 mg in series [2] (5 min); 109.4 mg in series [2] (10 min); 110.3 mg in series [2] (15 min); 107.4 mg in series [2] (20 min); 109.6 mg in series [2] (25 min); 110.9 mg in series [2] (30 min). Besides, in series [2] (60.25 min), the “Amount of substance dissolved” value is 112.2 mg. The “Dissolution in ethanol (in words)” value in series [6] is on record as “completely dissolved”. Further, in series [3], the Crystal shape entry was “Hexagons and polygonal plates”. The “Stability towards oxidation and towards discoloration” value in series [4] was “substantially improved stability”. In addition, the “Bulk density (ml/100 g substance)” value in series [5] came out at 306 ml/100 g substance.
Turning to `CCOC(=O)Nc1ccc(NCc2ccc(F)cc2)nc1N.O=C(O)C(F)(F)F` [Flupirtine triflutate, Flupirtine Triflutate], the “Amount of substance dissolved” value is on record as 98.5 mg in series [2] (5 min), 115.1 mg in series [2] (10 min), 108.0 mg in series [2] (15 min) and 107.7 mg in series [2] (20 min). The “Dissolution in ethanol (in words)” value in series [6] is “completely dissolved”.
